In data set [1] the target is T1, human GLP-1 receptor (hGLP-1 R) (Homo sapiens, UniProt P43220).
T1 construct: expressed in transfected cells
The data set can be described thus: cAMP response of HEK-293 cells stably expressing human GLP-1 receptor (HTRF). The format is cell-based. The following applies: Table 7; cAMP formation. An outline of the steps: (§1)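 HTRF read-out of cellular cAMP after 30 min compound exposure at room temperature. Accutase-detached cells were suspended at 400000 cells/ml in HBSS buffer containing 20 mM HEPES, 0.1% BSA and 2 mM IBMX phosphodiesterase inhibitor.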
A general note: TR-FRET usually uses a lanthanide donor and a delayed reading to cut background.

The target of data set [2] is T2, human GIP receptor (hGIP R) (Homo sapiens, UniProt P48546).
T2 construct: expressed in transfected cells
T2 sequence (P48546 22-466): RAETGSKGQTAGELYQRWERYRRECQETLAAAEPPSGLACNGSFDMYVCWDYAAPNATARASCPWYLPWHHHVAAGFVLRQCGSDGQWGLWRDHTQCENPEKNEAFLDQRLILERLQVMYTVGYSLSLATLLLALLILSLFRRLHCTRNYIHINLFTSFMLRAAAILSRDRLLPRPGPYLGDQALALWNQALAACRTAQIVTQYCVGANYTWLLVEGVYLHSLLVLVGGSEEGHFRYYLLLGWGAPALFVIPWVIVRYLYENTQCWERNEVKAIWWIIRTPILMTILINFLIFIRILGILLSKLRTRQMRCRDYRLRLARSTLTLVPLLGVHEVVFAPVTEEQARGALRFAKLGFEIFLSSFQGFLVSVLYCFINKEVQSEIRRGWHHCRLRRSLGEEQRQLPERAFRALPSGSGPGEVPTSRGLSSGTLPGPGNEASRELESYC
The data set can be described thus: cAMP response of HEK-293 cells stably expressing human GIP receptor (HTRF). The class given is cell-based. To be noted: Table 7; cAMP formation. An outline of the steps: as §1

Data set [3] addresses T3, human glucagon receptor (hGLUC R) (Homo sapiens, UniProt P47871).
T3 construct: expressed in transfected cells
Briefly: cAMP response of HEK-293 cells stably expressing human glucagon receptor (HTRF). The class given is cell-based. The following applies: Table 7; cAMP formation. An outline of the steps:
as §1

A short description of data set [4]: Solubility testing in buffer (HPLC-UV of supernatant). The format is physicochemical.
Where [5] appears, read: pH 4.5, target concentration 1.0 mg/mL, read-out: Solubility (pH 4.5).
Where [6] appears, read: pH 7.4, target concentration 1.0 mg/mL, read-out: Solubility (pH 7.4).

Values after ≈ are worked out from the molar mass of the structure shown. Like-named read-outs stand apart in the source and are kept apart here. *1 amine or outer side, *2 acyl side, *3 side chain or, on linkers, in order; H or OH if unused. Where a SMILES comes first, the peptide text is derived from it. Side-chain parts run from the residue outwards. [ ]: non-standard residue; d: D form. The star is where a group is joined. γGlu = O=C(O)[C@H](CCC(=O)[*:2])N[*:1]; Stearoyl = CCCCCCCCCCCCCCCCCC(=O)*; Palmitoyl = CCCCCCCCCCCCCCCC(=O)*; Aib = CC(C)(N)C(=O)O

The EC50 is the concentration that produces a half-maximal response. Lower therefore signals a more potent agent. A word on the solubility: it is the dissolved amount per volume that the medium holds.

T3 sequence (P47871 26-477): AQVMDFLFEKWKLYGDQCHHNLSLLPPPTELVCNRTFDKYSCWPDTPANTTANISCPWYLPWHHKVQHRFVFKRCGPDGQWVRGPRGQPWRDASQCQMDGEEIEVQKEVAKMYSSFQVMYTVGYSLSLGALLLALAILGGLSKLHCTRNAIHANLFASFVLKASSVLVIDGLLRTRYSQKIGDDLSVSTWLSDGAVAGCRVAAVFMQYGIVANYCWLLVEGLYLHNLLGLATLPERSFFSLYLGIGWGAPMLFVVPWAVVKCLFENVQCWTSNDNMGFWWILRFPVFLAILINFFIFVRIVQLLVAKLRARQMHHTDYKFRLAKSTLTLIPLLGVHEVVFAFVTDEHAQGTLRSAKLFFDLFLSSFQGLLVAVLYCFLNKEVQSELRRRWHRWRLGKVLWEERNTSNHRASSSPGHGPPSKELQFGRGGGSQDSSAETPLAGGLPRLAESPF
T1 sequence (P43220 24-463): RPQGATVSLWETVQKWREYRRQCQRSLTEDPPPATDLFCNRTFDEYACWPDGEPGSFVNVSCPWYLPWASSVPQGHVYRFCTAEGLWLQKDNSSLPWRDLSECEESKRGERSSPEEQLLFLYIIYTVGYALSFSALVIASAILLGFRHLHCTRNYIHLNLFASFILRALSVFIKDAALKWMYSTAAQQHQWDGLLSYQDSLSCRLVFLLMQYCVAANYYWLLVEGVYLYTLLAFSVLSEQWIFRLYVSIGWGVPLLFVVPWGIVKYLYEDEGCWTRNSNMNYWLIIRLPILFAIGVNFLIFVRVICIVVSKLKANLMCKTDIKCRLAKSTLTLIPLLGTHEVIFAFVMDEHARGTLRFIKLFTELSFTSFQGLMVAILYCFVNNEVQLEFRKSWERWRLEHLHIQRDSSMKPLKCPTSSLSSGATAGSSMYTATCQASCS

In the case of `CCCCCCCCCCCCCCCC(=O)N[C@@H](CCC(=O)NCCCC[C@H](NC(=O)[C@H](CCC(N)=O)NC(=O)[C@@H](NC(=O)[C@H](CO)NC(=O)[C@H](CC(C)C)NC(=O)[C@H](CC(=O)O)NC(=O)[C@H](CO)NC(=O)[C@@H](NC(=O)[C@H](Cc1ccccc1)NC(=O)[C@@H](NC(=O)CNC(=O)[C@H](CCC(N)=O)NC(=O)C(C)(C)NC(=O)[C@@H](N)Cc1ccc(O)cc1)[C@@H](C)O)[C@@H](C)O)[C@@H](C)CC)C(=O)N[C@@H](CCC(=O)O)C(=O)N[C@@H](CCCCN)C(=O)N[C@@H](CCCNC(=N)N)C(=O)N[C@@H](C)C(=O)N[C@H](C(=O)NC(C)(C)C(=O)N[C@@H](CC(C)C)C(=O)N[C@@H](Cc1ccccc1)C(=O)N[C@H](C(=O)N[C@@H](CCC(=O)O)C(=O)N[C@@H](Cc1c[nH]c2ccccc12)C(=O)N[C@@H](CC(C)C)C(=O)N[C@@H](CCCCN)C(=O)N[C@@H](C)C(=O)NCC(=O)NCC(=O)N1CCC[C@H]1C(=O)N[C@@H](CO)C(=O)N[C@@H](CO)C(=O)NCC(=O)N[C@@H](C)C(=O)N1CCC[C@H]1C(=O)N1CCC[C@H]1C(=O)N1CCC[C@H]1C(=O)N[C@@H](CO)C(N)=O)[C@@H](C)CC)C(C)C)C(=O)O` [SEQ ID NO: 24, Y-Aib-Q-G-T-F-T-S-D-L-S-I-Q-K(yE-x53)-E-K-R-A-V-Aib-L-F-I-E-W-L-K-A-G-G-P-S-S-G-A-P-P-P-S-NH2] (H-Y[Aib]QGTFTSDLSIQK([γGlu-Palmitoyl])EKRAV[Aib]LFIEWLKAGGPSSGAPPPS-NH2), the EC50 amounted to 0.0192 nM in data set [1], 0.0104 nM in data set [2] and 0.284 nM in data set [3]. Besides, the solubility at 2 h in data set [4] (setting [5]) was over 1000 µg/mL; in data set [4] (setting [6]), 976 µg/mL (≈ 217 µM).

Take `CCCCCCCCCCCCCCCCCC(=O)N[C@@H](CCC(=O)NCCCC[C@H](NC(=O)[C@H](CCC(N)=O)NC(=O)[C@@H](NC(=O)[C@H](CO)NC(=O)[C@H](CC(C)C)NC(=O)[C@H](CC(=O)O)NC(=O)[C@H](CO)NC(=O)[C@@H](NC(=O)[C@H](Cc1ccccc1)NC(=O)[C@@H](NC(=O)CNC(=O)[C@H](Cc1c[nH]cn1)NC(=O)C(C)(C)NC(=O)[C@@H](N)Cc1ccc(O)cc1)[C@@H](C)O)[C@@H](C)O)[C@@H](C)CC)C(=O)N[C@@H](CCC(=O)O)C(=O)N[C@@H](CCCCN)C(=O)N[C@@H](CCCNC(=N)N)C(=O)N[C@@H](C)C(=O)N[C@@H](C)C(=O)NC(C)(C)C(=O)N[C@@H](CCC(=O)O)C(=O)N[C@@H](Cc1ccccc1)C(=O)N[C@H](C(=O)N[C@@H](CCC(=O)O)C(=O)N[C@@H](Cc1c[nH]c2ccccc12)C(=O)N[C@@H](CC(C)C)C(=O)N[C@@H](CCCCN)C(=O)N[C@@H](CC(N)=O)C(=O)N[C@H](C(=O)NCC(=O)N1CCC[C@H]1C(=O)N[C@@H](CO)C(=O)N[C@@H](CO)C(=O)NCC(=O)N[C@@H](C)C(=O)N1CCC[C@H]1C(=O)N1CCC[C@H]1C(=O)N1CCC[C@H]1C(=O)N[C@@H](CO)C(N)=O)[C@@H](C)O)[C@@H](C)CC)C(=O)O` [SEQ ID NO: 18, Y-Aib-H-G-T-F-T-S-D-L-S-I-Q-K(yE-x70)-E-K-R-A-A-Aib-E-F-I-E-W-L-K-N-T-G-P-S-S-G-A-P-P-P-S-NH2] (H-Y[Aib]HGTFTSDLSIQK([γGlu-Stearoyl])EKRAA[Aib]EFIEWLKNTGPSSGAPPPS-NH2): the figures for the concentration giving a half-maximal response (EC50) in data set [1], in data set [2] and in data set [3] were 0.0183 nM, 0.0095 nM and 0.0095 nM, respectively. The solubility at 2 h in data set [4] (setting [5]) is 966 µg/mL (≈ 209 µM); in data set [4] (setting [6]), 768 µg/mL (≈ 166 µM).

`CCCCCCCCCCCCCCCC(=O)N[C@@H](CCC(=O)NCCCC[C@H](NC(=O)[C@H](CCC(N)=O)NC(=O)[C@H](CCCCN)NC(=O)[C@H](CO)NC(=O)[C@H](CC(C)C)NC(=O)[C@H](CC(=O)O)NC(=O)[C@H](CO)NC(=O)[C@@H](NC(=O)[C@H](Cc1ccccc1)NC(=O)[C@@H](NC(=O)CNC(=O)[C@H](CCC(N)=O)NC(=O)C(C)(C)NC(=O)[C@@H](N)Cc1ccc(O)cc1)[C@@H](C)O)[C@@H](C)O)C(=O)N[C@@H](CCC(=O)O)C(=O)N[C@@H](CO)C(=O)N[C@@H](CCCCN)C(=O)N[C@@H](C)C(=O)N[C@@H](C)C(=O)N[C@@H](CCC(N)=O)C(=O)N[C@@H](CCC(=O)O)C(=O)N[C@@H](Cc1ccccc1)C(=O)N[C@H](C(=O)N[C@@H](CCC(=O)O)C(=O)N[C@@H](Cc1c[nH]c2ccccc12)C(=O)N[C@@H](CC(C)C)C(=O)N[C@@H](CCCCN)C(=O)N[C@@H](C)C(=O)NCC(=O)NCC(=O)N1CCC[C@H]1C(=O)N[C@@H](CO)C(=O)N[C@@H](CO)C(=O)NCC(=O)N[C@@H](C)C(=O)N1CCC[C@H]1C(=O)N1CCC[C@H]1C(=O)N1CCC[C@H]1C(=O)N[C@@H](CO)C(N)=O)[C@@H](C)CC)C(=O)O` [SEQ ID NO: 40, Y-Aib-Q-G-T-F-T-S-D-L-S-K-Q-K(yE-x53)-ESKAAQEFIEWLKAGGPSSGAPPPS-NH2] (H-Y[Aib]QGTFTSDLSKQK([γGlu-Palmitoyl])ESKAAQEFIEWLKAGGPSSGAPPPS-NH2): the concentration giving a half-maximal response (EC50) was found to be 0.0055 nM in data set [1], 0.0536 nM in data set [2] and 0.0226 nM in data set [3]. For the same molecule, the solubility at 2 h in data set [4] (setting [5]) is 986 µg/mL (≈ 220 µM); in data set [4] (setting [6]) it was 993 µg/mL (≈ 222 µM).

As for `CCCCCCCCCCCCCCCC(=O)N[C@@H](CCC(=O)NCCCC[C@H](NC(=O)[C@H](CCC(N)=O)NC(=O)[C@@H](NC(=O)[C@H](CO)NC(=O)[C@H](CC(C)C)NC(=O)[C@H](CC(=O)O)NC(=O)[C@H](CO)NC(=O)[C@@H](NC(=O)[C@H](Cc1ccccc1)NC(=O)[C@@H](NC(=O)CNC(=O)[C@H](CCC(=O)O)NC(=O)C(C)(C)NC(=O)[C@@H](N)Cc1ccc(O)cc1)[C@@H](C)O)[C@@H](C)O)[C@@H](C)CC)C(=O)N[C@@H](CCC(=O)O)C(=O)N[C@@H](CCCCN)C(=O)N[C@@H](CCCNC(=N)N)C(=O)N[C@@H](C)C(=O)N[C@@H](C)C(=O)N[C@@H](Cc1c[nH]cn1)C(=O)N[C@@H](CCC(=O)O)C(=O)N[C@@H](Cc1ccccc1)C(=O)N[C@H](C(=O)N[C@@H](CCC(=O)O)C(=O)N[C@@H](Cc1c[nH]c2ccccc12)C(=O)N[C@@H](CC(C)C)C(=O)N[C@@H](CCCCN)C(=O)N[C@@H](CC(N)=O)C(=O)N[C@H](C(=O)NCC(=O)N1CCC[C@H]1C(=O)N[C@@H](CO)C(=O)N[C@@H](CO)C(=O)NCC(=O)N[C@@H](C)C(=O)N1CCC[C@H]1C(=O)N1CCC[C@H]1C(=O)N1CCC[C@H]1C(=O)N[C@@H](CO)C(N)=O)[C@@H](C)O)[C@@H](C)CC)C(=O)O` [SEQ ID NO: 59, Y-Aib-E-G-T-F-T-S-D-L-S-I-Q-K(yE-x53)-EKRAAHEFIEWLKNTGPSSGAPPPS-NH2] (H-Y[Aib]EGTFTSDLSIQK([γGlu-Palmitoyl])EKRAAHEFIEWLKNTGPSSGAPPPS-NH2), the values for the EC50 in data set [1], in data set [2] and in data set [3] were 0.0075 nM, 0.0175 nM and 12.3 nM, respectively.

Consider `CCCCCCCCCCCCCCCC(=O)N[C@@H](CCC(=O)NCCCC[C@H](NC(=O)[C@H](CCC(N)=O)NC(=O)[C@@H](NC(=O)[C@H](CO)NC(=O)[C@H](CC(C)C)NC(=O)[C@H](CC(=O)O)NC(=O)[C@H](CO)NC(=O)[C@@H](NC(=O)[C@H](Cc1ccccc1)NC(=O)[C@@H](NC(=O)CNC(=O)[C@H](CCC(N)=O)NC(=O)C(C)(C)NC(=O)[C@@H](N)Cc1ccc(O)cc1)[C@@H](C)O)[C@@H](C)O)[C@@H](C)CC)C(=O)N[C@@H](CCC(=O)O)C(=O)N[C@@H](CCCCN)C(=O)N[C@@H](CCCNC(=N)N)C(=O)N[C@@H](C)C(=O)N[C@@H](C)C(=O)N[C@@H](CC(C)C)C(=O)N[C@@H](CCC(=O)O)C(=O)N[C@@H](Cc1ccccc1)C(=O)N[C@H](C(=O)N[C@@H](CCC(=O)O)C(=O)N[C@@H](Cc1c[nH]c2ccccc12)C(=O)N[C@@H](CC(C)C)C(=O)N[C@@H](CCCCN)C(=O)N[C@@H](CC(N)=O)C(=O)N[C@H](C(=O)NCC(=O)N1CCC[C@H]1C(=O)N[C@@H](CO)C(=O)N[C@@H](CO)C(=O)NCC(=O)N[C@@H](C)C(=O)N1CCC[C@H]1C(=O)N1CCC[C@H]1C(=O)N1CCC[C@H]1C(=O)N[C@@H](CO)C(N)=O)[C@@H](C)O)[C@@H](C)CC)C(=O)O` [SEQ ID NO: 33, Y-Aib-Q-G-T-F-T-S-D-L-S-I-Q-K(yE-x53)-EKRAALEFIEWLKNTGPSSGAPPPS-NH2] (H-Y[Aib]QGTFTSDLSIQK([γGlu-Palmitoyl])EKRAALEFIEWLKNTGPSSGAPPPS-NH2), for which the EC50 turned out to be 0.0081 nM in data set [1], 0.0882 nM in data set [2] and 0.109 nM in data set [3].

For the origin of these results see US20140213513A1 (Sanofi, priority 2012, published 2014).
